Structures can show the parent of a compound that is named as a salt. Where two headings read alike, the source gives them in different places.
Tested on: BLT1 and BLT2 receptors
Experiment: Ca2+ Flux Assay for LTB4 Antagonist Assay
Format: cell-based, Human
Details: inhibition of LTB4-induced Ca2+ flux (FLIPR), Retinoic Acid induced HL-60 cells endogenously expressing BLT1 and BLT2
Description: Ca^2+ Flux Assay for LTB4 Antagonist Assay
Seventy two hours prior to experiment cells are counted using ViaCount reagent, centrifuged and resuspended at 2.0×10^5 cells /ml density with the complete growth media containing 1 μM Retinoic Acid (Sigma).
On a day of the experiment loading buffer (Calcium-3 Assay Kit, Molecular Devices) was prepared by dissolving the contents of one vial (Express Kit) into 500 ml Hank's Balanced Salt Solution containing 20 mM HEPES and 5 mM probenecid. Equal volume of the loading buffer was mixed with the replacement buffer (Hank's Balanced Salt Solution containing 20 mM HEPES, 0.05% BSA and 5 mM probenecid). Retinoic Acid induced HL-60 cells were counted using ViaCount reagent, centrifuged and resuspended at 2.0×10^6 cells /ml density with the loading buffer/replacement buffer, dispensed into 384 well black/clear microplates (Falcon)(25 μl/well) and placed in a 37° C./5% CO2 incubator for 1 hour.
During the incubation, test compounds were prepared at 6× the desired concentration in HBSS/20 mM HEPES/0.05% BSA as well as LTB4 (Biomol) was prepared at 2.2× concentration in HBSS/20 mM HEPES/0.5% BSA buffer.
After the incubation, both the cell and compound plates were brought to the FLIPR and 5 μl of the diluted compounds were transferred to the cell plates by the FLIPR. Plates were then incubated for 30min at room temperature. After the ½ hour incubation, plates were returned to the FLIPR and 25 μl of 2.2× LTB4 was added to the cell plates. During the assay, fluorescence readings were taken simultaneously from all 384 wells of the cell plate every 1.5 seconds. Five readings were taken to establish a stable baseline, then 25 μl (LTB4) of sample was rapidly and simultaneously added to each well of the cell plate. The fluorescence was continuously monitored before, during and after sample addition for a total elapsed time of 100 seconds. Responses (increase in peak fluorescence) in each well following agonist addition was determined. The initial fluorescence reading from each well, prior to ligand stimulation, was used a zero baseline value for the data from that well. The responses are expressed as % inhibition of the neutral control (neutral control: wells that received buffer plus DMSO but no test compound).

O=C(O)CCCOc1cccc(CCCCCCOc2cc(-c3ccncc3)cc(-c3ccncc3)c2)c1CCC(=O)O [Example 1, 4-{2-(2-Carboxy-ethyl)-3-[6-(3,5-di-pyridin-4-yl-phenoxy)-hexyl]-phenoxy}-butyric acid]
IC50 (read-out: IC50): 0.07 nM

O=C(O)CCCOc1cccc(CCCCCCOc2cc(-c3ccccc3)cc(-c3ccccc3)c2)c1CCC(=O)O [Example 2, 4-{2-(2-Carboxy-ethyl)-3-[6-([1,1′,3,1″]terphenyl-5′-yloxy)-hexyl]-phenoxy}-butyric acid]
IC50 (read-out: IC50): 0.21 nM

O=C(O)CCCOc1cccc(CCCCCCOc2cc(-c3ccnc(F)c3)cc(-c3ccnc(F)c3)c2)c1CCC(=O)O [Example 3, 4-[3-{6-[3,5-Bis-(2-fluoro-pyridin-4-yl)-phenoxy]-hexyl}-2-(2-carboxy-ethyl)-phenoxy]-butyric acid]
IC50 (read-out: IC50): 0.17 nM

O=C(O)CCCOc1cccc(CCCCCCOc2cc(-c3cccnc3)cc(-c3cccnc3)c2)c1CCC(=O)O [Example 4, 4-{2-(2-Carboxy-ethyl)-3-[6-(3,5-di-pyridin-3-yl-phenoxy)-hexyl]-phenoxy}-butyric acid]
IC50 (read-out: IC50): 0.64 nM

O=C(O)CCCOc1cccc(CCCCCCSc2cc(-c3ccccc3)cc(-c3ccccc3)c2)c1CCC(=O)O [Example 7, 4-{2-(2-Carboxy-ethyl)-3-[6-([1,1′;3′,1″]terphenyl-5′-ylsulfanyl)-hexyl]-pheoxy}-butyric acid]
IC50 (read-out: IC50): 75 nM

O=C(O)CCCOc1cccc(CCCCCCOc2cc(-c3ccsc3)cc(-c3ccc4c(c3)OCO4)c2)c1CCC(=O)O [Example 12, 4-{3-[6-(3-Benzo[1,3]dioxol-5-yl-5-thiophen-3-yl-phenoxy)-hexyl]-2-(2-carboxy-ethyl)-phenoxy}-butyric acid]
IC50 (read-out: IC50): 0.21 nM

O=C(O)CCCOc1cccc(CCCCCCOc2cc(-c3ccccc3)cc(-c3ccsc3)c2)c1CCC(=O)O [Example 13, 4-{2-(2-Carboxy-ethyl)-3-[6-(5-thiophen-3-yl-biphenyl-3-yloxy)-hexyl]-phenoxy}-butyric acid]
IC50 (read-out: IC50): 0.36 nM

O=C(O)CCCOc1cccc(CCCCCCOc2cc(-c3ccncc3)cc(-c3ccsc3)c2)c1CCC(=O)O [Example 14, 4-{2-(2-Carboxy-ethyl)-3-[6-(3-pyridin-4-yl-5-thiophen-3-yl-phenoxy)-hexyl]-phenoxy}-butyric acid]
IC50 (read-out: IC50): 0.2 nM

O=C(O)CCCOc1cccc(CCCCCCOc2cc(-c3ccsc3)cc(-c3ccnc(Cl)c3)c2)c1CCC(=O)O [Example 15]
IC50 (read-out: IC50): 0.57 nM

O=C(O)CCCOc1cccc(CCCCCCOc2cc(-c3cncnc3)cc(-c3ccsc3)c2)c1CCC(=O)O [Example 16, 4-{2-(2-Carboxy-ethyl)-3-[6-(3-pyrimidin-5-yl-5-thiophen-3-yl-phenoxy)-hexyl]-phenoxy}-butyric acid]
IC50 (read-out: IC50): 0.39 nM

O=C(O)CCCOc1cccc(CCCCCCOc2cc(-c3cccc(F)c3)cc(-c3ccc4c(c3)OCO4)c2)c1CCC(=O)O [Example 17, 4-{3-[6-(5-Benzo[1,3]dioxol-5-yl-3′-fluoro-biphenyl-3-yloxy)-hexyl]-2-(2-carboxy-ethyl)-phenoxy}-butyric acid bis-sodium salt]
IC50: 1.19 nM

O=C(O)CCCOc1cccc(CCCCCCOc2cc(-c3ccncc3)cc(-c3cccc(F)c3)c2)c1CCC(=O)O [Example 18, 4-{2-(2-Carboxy-ethyl)-3-[6-(3′-fluoro-5-pyridin-4-yl-biphenyl-3-yloxy)-hexyl]-phenoxy}-butyric acid]
IC50 (read-out: IC50): 0.18 nM

O=C(O)CCCOc1cccc(CCCCCCOc2cc(-c3ccncc3)cc(-c3ccc4c(c3)OCO4)c2)c1CCC(=O)O [Example 20, 4-{3-[6-(3-Benzo[1,3]dioxol-5-yl-5-pyridin-4-yl-phenoxy)-hexyl]-2-(2-carboxy-ethyl)-phenoxy}-butyric acid]
IC50 (read-out: IC50): 0.21 nM

O=C(O)CCCOc1cccc(CCCCCCOc2cc(-c3ccncc3)cc(-c3ccc4c(c3)OCCO4)c2)c1CCC(=O)O [Example 24, 4-(2-(2-Carboxy-ethyl)-3-{6-[3-(2,3-dihydro-benzo[1,4]dioxin-6-yl)-5-pyridin-4-yl-phenoxy]-hexyl}-phenoxy)-butyric acid]
IC50 (read-out: IC50): 0.23 nM

O=C(O)CCCOc1cccc(CCCCCCOc2cc(-c3ccccn3)cc(-c3ccccn3)c2)c1CCC(=O)O [Example 26, 4-(2-(2-Carboxy-ethyl)-3-{6-[3,5-di-pyridin-2-yl-phenoxy]-hexyl}-phenoxy)-butyric acid]
IC50 (read-out: IC50): 0.97 nM

Cc1cc(C(F)(F)F)c(-c2cc(OCCCCCCc3cccc(OCCCC(=O)O)c3CCC(=O)O)cc(-c3ccsc3)c2)c(=O)n1C [Example 28, 4-(2-(2-Carboxy-ethyl)-3-{6-[3-(1,6-dimethyl-2-oxo-4-trifluoromethyl-1,2-dihydro-pyridin-3-yl)-5-thiophen-3-yl-phenoxy]-hexyl}-phenoxy)-butyric acid]
IC50 (read-out: IC50): 99.4 nM

O=C(O)CCCOc1cccc(CCCCCCNc2cc(-c3ccsc3)cc(-c3ccsc3)c2)c1CCC(=O)O [Example 35, 4-{2-(2-Carboxy-ethyl)-3-[6-(3,5-di-thiophen-3-yl-phenylamino)-hexyl]-phenoxy}-butyric acid]
IC50 (read-out: IC50): 99.1 nM

O=C(O)CCCOc1cccc(CCCCCC#Cc2cc(-c3ccccc3)cc(-c3ccccc3)c2)c1CCC(=O)O [Example 48, 4-[2-(2-Carboxy-ethyl)-3-(7-[1,1′;3′,1″]terphenyl-5′-yl-hept-6-ynyl)-phenoxy]-butyric acid]
IC50 (read-out: IC50): 2.69 nM

O=C(O)CCCOc1cccc(CCCCCCCc2cc(-c3ccc4c(c3)OCO4)cc(-c3ccc4c(c3)OCO4)c2)c1CCC(=O)O [Example 52, 4-[3-[7-(3,5-Bis-benzo[1,3]dioxol-5-yl-phenyl)-heptyl]-2-(2-carboxy-ethyl)-phenoxy]-butyric acid]
IC50 (read-out: IC50): 42.5 nM

O=C(O)CCCOc1cccc(CCCCCCOc2cc(-c3ccsc3)cc(-c3ccsc3)c2)c1CCC(=O)O [Example 56, 4-{2-(2-Carboxy-ethyl)-3-[6-(3,5-di-thiophen-3-yl-phenoxy)-hexyl]-phenoxy}-butyric acid]
IC50 (read-out: IC50): 0.58 nM

CN(C)c1ccc(-c2cc(OCCCCCCc3cccc(OCCCC(=O)O)c3CCC(=O)O)cc(-c3ccc(Cl)c(F)c3)c2)cc1 [Example 63, 4-{2-(2-Carboxy-ethyl)-3-[6-(4-chloro-4″-dimethylamino-3-fluoro-[1,1′;3′,1″]terphenyl-5′-yloxy)-hexyl]-phenoxy}-butyric acid]
IC50 (read-out: IC50): 59.8 nM

Cc1cc(-c2cc(OCCCCCCc3cccc(OCCCC(=O)O)c3CCC(=O)O)cc(-c3ccc(N(C)C)cc3)c2)ccc1F [Example 65, 4-{2-(2-Carboxy-ethyl)-3-[6-(4″-dimethylamino-4-fluoro-3-methyl-[1,1′;3′,1″]terphenyl-5′-yloxy)-hexyl]-phenoxy}-butyric acid]
IC50 (read-out: IC50): 0.47 nM

O=C(O)CCCOc1cccc(CCCCCCOc2cc(-c3ccccc3)cc(-c3ccc(OC(F)(F)F)cc3)c2)c1CCC(=O)O [Example 70]
IC50 (read-out: IC50): 0.58 nM

COc1ccc(-c2cc(OCCCCCCc3cccc(OCCCC(=O)O)c3CCC(=O)O)cc(-c3ccc(OC)cc3)c2)cc1 [Example 88, 4-{2-(2-Carboxy-ethyl)-3-[6-(4,4″-dimethoxy-[1,1′;3′,1″]terphenyl-5′-yloxy)-hexyl]-phenoxy}-butyric acid]
IC50 (read-out: IC50): 0.61 nM

O=C(O)CCCOc1cccc(CCCCCCOc2cc(-c3ccccc3)cc(-c3ccccc3F)c2)c1CCC(=O)O [Example 97, 4-{2-(2-Carboxy-ethyl)-3-[6-(2-fluoro-[1,1′;3′,1″]terphenyl-5′-yloxy)-hexyl]-phenoxy}-butyric acid]
IC50 (read-out: IC50): 0.25 nM

From patent US8093385B2, “Leukotriene B4 inhibitors” (Hoffmann-La Roche Inc., priority 2007, dated 2012)
